The values below come from US20260217688A1, “INHIBITORS OF JAK2” (Llydaw Therapeutics, Inc., priority 2022, published 2026).

The subject of one data set is Ba/F3 (JAK2 V617F) cells. Briefly: Proliferation inhibition assay (CellTiter-Glo), Ba/F3 JAK2 V617F. In kind it is cell-based. As to conditions: Mus musculus, BaF3; without IL3, 72 h; read-out: Ba/F3 JAK2 V617F, CC50 3 days. The procedure:
(§1) Ba/F3 (JAK2 wt) (ABM, T3076) cells and Ba/F3 (JAK2 V617F) (WuXi AppTec) cells were grown in RPMI-1640 (Gibco, cat. number 21870) supplemented with 10% FBS (Hyclone Laboratories Inc, Cat #SV30160.03), 1× Antibiotic-antimycotic (Gibco, Cat #15240-062), 2× Sodium pyruvate (Paneco, cat #F023), 2× Essential amino acids (Paneco, cat #F115/100), 1× Non-Essential amino acids (Paneco, cat #F116) at 37° C. in 5% CO2 atmosphere.
(§2) For the proliferation inhibition assay Ba/F3 (JAK2 wt) and Ba/F3 (JAK2 V617F) cells were seeded into a CellBIND® 384-well Flat Clear Bottom Black Polystyrene Microplates (Corning, USA, Cat #3770) at a density of 4000 cells per well in complete culture medium with or without 10 ng/ml rmIL-3 (RD systems, USA, Cat #403-ML-025) using Biomek FX/NX (384) liquid handler, 45 μl of cell suspension in complete culture medium per well. 500× compound's stocks in DMSO (Sigma Cat #D2650) were prepared in compounds plate (Diamond Well Plate, Axigen, Cat #P-384-120 SQ-C-S) applying Biomek 2000. 1 μl of 500× compounds stock was added to 49 μl of complete culture medium into Dilution plate (Diamond Well Plate, Axigen, Cat #P-384-120 SQ-C-S), mixed and then 5 μl of 10× compounds solution was transferred to cells using Biomek FX/NX (384) liquid handler. The centrifugation at 100 g for 1 min at Eppendorf 5810 followed. Final DMSO concentration in assay was 0.2%. All treatments were performed in technical and biological duplicates. Treated cells were incubated for 72 h at 37° C. with 5% CO2.
(§3) After 3 days of incubation, CellTiter-Glo Luminescent Cell Viability Assay (Promega) was performed. 10 μl of CellTiter-Glo (Promega, CAT #G7572) was added to the cells using Biomek FX/NX (384) liquid handler. The assay plate was centrifuged at 100 g for 1 min and luminescence signal was measured using Microplate Reader (CLARIOStar).
For orientation: In ATP-based viability assays light output follows the ATP content of the culture.

The nature of data set [1]: Proliferation inhibition assay (CellTiter-Glo), Ba/F3 JAK2 wt. The format is cell-based. Particulars: mouse, Ba/F3 (JAK2 wt) cells, with 10 ng/ml rmIL-3, 72 h; read-out: Ba/F3 JAK2 wt + IL3, CC50 3 days. The procedure:
as §1, §2, §3

Another data set addresses T1, JAK2 JH2 (Homo sapiens, UniProt O60674).
T1 construct: Enzyme: JAK2 JH2, His-Avi-Tag, Biotin-Labeled (BPS Bioscience, Cat #79074) 1 nM; His; purchased BPS Bioscience 79074
Briefly: JAK2 JH2 TR-FRET Assay. The format is binding. As to conditions: JAK2 JH2 1 nM, Tracer ZE84-0003 10 nM. As to the method: Assay Buffer 1×: • 20 mM HEPES pH 7.2-7.4; • 10 mM MgCl2; • 0.015% Brij-35; • 2 mM DTT; • 0.05 mg/ml BSA.
Final assay concentrations: • DMSO: 0.25%; • Streptavidin Tb-cryptate (Cisbio, Cat #610SATLB) 0.2 nM; • Enzyme: JAK2 JH2, His-Avi-Tag, Biotin-Labeled (BPS Bioscience, Cat #79074) 1 nM; • Probe: Tracer ZE84-0003 (ChemRar) 10 nM.
Materials: • Reaction plate: ProxiPlate-384 Plus White Plate (PerkinElmer); • Dilution plate: Diamond Well Plate (Axygen, Cat #P-384-120 SQ-C-S); • Compounds plate: Diamond Well Plate (Axygen, Cat #P-384-120 SQ-C-S).
Assay protocol: • 1. Prepare 400× solutions of compounds in DMSO into Compounds plate; • 2. Prepare Dilution plate: add 39 μL of 1× Assay buffer per well of Dilution plate; • 3. Prepare 2×Tb-cryptate mix in 1× Assay buffer. Add 10 μL of 2×Tb-cryptate mix to K-(Tb-cryptate and Probe without Enzyme) wells and blank (Tb-cryptate without Probe and Enzyme) wells; • 4. Add JAK2 JH2 into the rest of 2×Tb-cryptate mix to make 2×JAK2 JH2+Tb-cryptate mix. Add 10 μL per well into Reaction plate; • 5. Centrifuge plate at 200 g for 1 min; • 6. Dilute 1 μL of 400× compounds in 39 μL 1× Assay buffer in Dilution plate; • 7. Add 2 μL of 10× compounds from Dilution plate to Reaction plate with 10 μL of JAK2 JH2+Tb-cryptate mix; • 8. Centrifuge plate at 200 g for 1 min; • 9. Pre-incubate Reaction plate with compounds 15 min; • 10. Prepare 2.5× Tracer mix; • 11. Add 8 μL of 2.5× Tracer mix into appropriate wells of Reaction plate; • 12. Centrifuge plate at 800 g for 3 min; • 13. Incubate at rt for 15 min; • 14. Measure Fluorescence using Microplate Reader (Ex: TR, Em1/Em2: 482/520). The results of this assay are shown in the Table B. The values of EC50 shown as a letters A-D, where: A≤0.01 μM; 0.01 μM<B≤0.05 μM; 0.05 μM<C≤0.1 μM; D>0.1.

T1 sequence (O60674 545-809 limits assumed): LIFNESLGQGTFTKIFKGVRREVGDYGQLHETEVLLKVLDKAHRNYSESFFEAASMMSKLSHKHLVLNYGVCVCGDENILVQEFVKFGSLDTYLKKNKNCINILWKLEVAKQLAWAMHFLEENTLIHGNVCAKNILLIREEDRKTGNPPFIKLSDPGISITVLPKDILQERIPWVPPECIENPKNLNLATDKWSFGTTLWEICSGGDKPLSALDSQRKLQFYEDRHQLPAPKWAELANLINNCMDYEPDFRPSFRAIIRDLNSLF

As for `COc1c(Nc2nc(Nc3cnn(CC(C)C)c3)ncc2C(N)=O)cccc1-c1ncn(C)n1` [Compound 58, 2-[(1-isobutylpyrazol-4-yl)amino]-4-[2-methoxy-3-(1-methyl-1,2,4-triazol-3-yl)anilino]pyrimidine-5-carboxamide], the CC50 in the data set with Ba/F3 (JAK2 V617F) cells lay within 0.5 to 1 µM. The CC50 at 72 h in data set [1] fell in the range of 1 to 5 µM.
As to `COCCCn1cc(Nc2ncc(C(N)=O)c(Nc3cccc(-c4nc5ccccc5o4)c3OC)n2)cn1` [Compound 52, 4-[3-(1,3-benzoxazol-2-yl)-2-methoxy-anilino]-2-[[1-(3-methoxypropyl)pyrazol-4-yl]amino]pyrimidine-5-carboxamide], the CC50 with Ba/F3 (JAK2 V617F) cells was not above 0.5 µM. Besides, the CC50 at 72 h in data set [1] lay within 1 to 5 µM. The EC50 (as a rule, the concentration needed to bring the measured effect to its halfway point) at JAK2 JH2 was in the range of 0.01 to 0.05 µM.
With `CCOCCn1cc(Nc2ncc(C(N)=O)c(Nc3cccc(-c4nc5ccccc5o4)c3OC)n2)cn1` [Compound 54], the CC50 in the data set with Ba/F3 (JAK2 V617F) cells is not above 0.5 µM. The CC50 at 72 h in data set [1] lay within 1 to 5 µM. At JAK2 JH2, this compound came in with a concentration giving a half-maximal response (EC50) of 0.01 to 0.05 µM.
Take `COc1c(Nc2nc(Nc3cnn(CC(F)(F)F)c3)ncc2C(N)=O)cccc1-c1ncn(C)n1` [Compound 59]: in the data set with Ba/F3 (JAK2 V617F) cells, the CC50 was 1 to 5 µM. Moreover, in data set [1], the CC50 at 72 h was 5 to 10 µM.
Regarding `COc1c(Nc2nc(Nc3cnn(C4CCOCC4)c3)ncc2C(N)=O)cccc1-c1ccccn1` [Compound 40, 4-[2-methoxy-3-(2-pyridyl)anilino]-2-[(1-tetrahydropyran-4-ylpyrazol-4-yl)amino]pyrimidine-5-carboxamide], in the data set on Ba/F3 (JAK2 V617F) cells, the CC50 is not above 0.5 µM. In data set [1], the CC50 at 72 h lay within 5 to 10 µM. This compound displayed an EC50 at JAK2 JH2 of 0.01 to 0.05 µM.
Take `COc1c(Nc2nc(Nc3cnn(C45CC6CC(CC(C6)C4)C5)c3)ncc2C(N)=O)cccc1-c1nc2ccccc2o1` [Compound 49, 2-[[1-(1-adamantyl)pyrazol-4-yl]amino]-4-[3-(1,3-benzoxazol-2-yl)-2-methoxy-anilino]pyrimidine-5-carboxamide]: the CC50 with Ba/F3 (JAK2 V617F) cells fell in the range of 5 to 10 µM. The CC50 at 72 h in data set [1] lay within 5 to 10 µM. The EC50 at JAK2 JH2 is more than 0.1 µM.
Compound `COc1c(Nc2nc(Nc3c(C)nn(C(C)C)c3C)ncc2C(N)=O)cccc1-c1ncn(C)n1` [Compound 20, 2-[(1-isopropyl-3,5-dimethyl-pyrazol-4-yl)amino]-4-[2-methoxy-3-(1-methyl-1,2,4-triazol-3-yl)anilino]pyrimidine-5-carboxamide] displayed an EC50 at JAK2 JH2 of more than 0.1 µM.
On the same count and under the same terms, as for `COc1c(Nc2nc(Nc3cnn(C(C)C)c3)ncc2C(=O)N(C)C)cccc1-c1ncn(C)n1` [Compound 31, 2-[(1-Isopropyl-1H-pyrazol-4-yl)amino]-4-{[2-methoxy-3-(1-methyl-1H-1,2,4-triazol-3-yl)phenyl]amino}-N,N-dimethylpyrimidine-5-carboxamide], the figure is more than 0.1 µM.
On to `COc1c(Nc2nc(Nc3cnn(C4CCN(C)CC4)c3)ncc2C(N)=O)cccc1-c1nc2ccccc2o1` [Compound 32, 4-[3-(1,3-benzoxazol-2-yl)-2-methoxy-anilino]-2-[[1-(1-methyl-4-piperidyl)pyrazol-4-yl]amino]pyrimidine-5-carboxamide], for which the CC50 with Ba/F3 (JAK2 V617F) cells lay in the range of 0.5 to 1 µM. In data set [1], the CC50 at 72 h lay in the range of 1 to 5 µM. Moreover, at JAK2 JH2, the EC50 fell in the range of 0.01 to 0.05 µM.
On the same counts, the results for `COc1c(Nc2nc(Nc3cnn(CCN(CC(C)C)CC(C)C)c3)ncc2C(N)=O)cccc1-c1ccccn1` [Compound 42, 2-[[1-[2-(diisobutylamino)ethyl]pyrazol-4-yl]amino]-4-[2-methoxy-3-(2-pyridyl)anilino]pyrimidine-5-carboxamide] are 1 to 5 µM, 5 to 10 µM and more than 0.1 µM.
On the same counts, the results for `COc1c(Nc2nc(Nc3cnn(C4CCN(C)CC4)c3)ncc2C(N)=O)cccc1-c1ccccn1` [Compound 47] are 1 to 5 µM, 5 to 10 µM and more than 0.1 µM.
On the same counts, the results for `COCCn1cc(Nc2ncc(C(N)=O)c(Nc3cccc(-c4nc5ccccc5o4)c3OC)n2)cn1` [Compound 50] are not above 0.5 µM, more than 10 µM and 0.01 to 0.05 µM.
Turning to `CCOCCn1cc(Nc2ncc(C(N)=O)c(Nc3cccc(-c4ncn(C)n4)c3OC)n2)cn1` [Compound 55, 2-[[1-(2-ethoxyethyl)pyrazol-4-yl]amino]-4-[2-methoxy-3-(1-methyl-1,2,4-triazol-3-yl)anilino]pyrimidine-5-carboxamide], in the data set on Ba/F3 (JAK2 V617F) cells, the CC50 lay in the range of 1 to 5 µM. Moreover, in data set [1], the CC50 at 72 h was more than 10 µM. For the same compound, the 50% effective concentration (EC50) at JAK2 JH2 is 0.01 to 0.05 µM.
In the same order, the values of `COc1c(Nc2nc(Nc3cnn(CCN(CC(C)C)CC(C)C)c3)ncc2C(N)=O)cccc1-c1nc2ccccc2o1` [Compound 34] are 1 to 5 µM, 5 to 10 µM and more than 0.1 µM.
On JAK2 JH2, `COc1c(Nc2nc(Nc3cnn(CCN(C)C)c3)ncc2C(N)=O)cccc1-c1ncn(C)n1` [Compound 5, 2-((1-(2-(dimethylamino)ethyl)-1H-pyrazol-4-yl)amino)-4-((2-methoxy-3-(1-methyl-1H-1,2,4-triazol-3-yl)phenyl)amino)pyrimidine-5-carboxamide] came in with a concentration giving a half-maximal response (EC50) of 0.01 to 0.05 µM.
At JAK2 JH2, `CCCn1nc(C)c(Nc2ncc(C(N)=O)c(Nc3cccc(-c4ncn(C)n4)c3OC)n2)c1C` [Compound 19, 2-[(3,5-dimethyl-1-propyl-pyrazol-4-yl)amino]-4-[2-methoxy-3-(1-methyl-1,2,4-triazol-3-yl)anilino]pyrimidine-5-carboxamide] yielded an EC50 of more than 0.1 µM.
On the same count and under the same terms, as for `COc1c(Nc2nc(Nc3cnn(CC45CC6CC(CC(C6)C4)C5)c3)ncc2C(N)=O)cccc1-c1ncn(C)n1` [Compound 23, 2-[[1-(1-adamantylmethyl)pyrazol-4-yl]amino]-4-[2-methoxy-3-(1-methyl-1,2,4-triazol-3-yl)anilino]pyrimidine-5-carboxamide], the figure is more than 0.1 µM; as for `COc1c(Nc2nc(Nc3cn(C)nc3C)ncc2C(N)=O)cccc1-c1ncn(C)n1` [Compound 13, 2-[(1,3-dimethylpyrazol-4-yl)amino]-4-[2-methoxy-3-(1-methyl-1,2,4-triazol-3-yl)anilino]pyrimidine-5-carboxamide], more than 0.1 µM; as for `CCCCCCCCn1cc(Nc2ncc(C(N)=O)c(Nc3cccc(-c4ncn(C)n4)c3OC)n2)cn1` [Compound 25, 4-[2-methoxy-3-(1-methyl-1,2,4-triazol-3-yl)anilino]-2-[(1-octylpyrazol-4-yl)amino]pyrimidine-5-carboxamide], more than 0.1 µM.
Same read-out and setting: as for `COc1c(Nc2nc(Nc3cnn(CCC4CCCCN4C)c3)ncc2C(N)=O)cccc1-c1ncn(C)n1` (stereo not drawn) [Compound 27, 4-[2-methoxy-3-(1-methyl-1,2,4-triazol-3-yl)anilino]-2-[[1-[2-(1-methyl-2-piperidyl)ethyl]pyrazol-4-yl]amino]pyrimidine-5-carboxamide], the figure is more than 0.1 µM.
